From patent publication US9149475B2, “Protein kinase C inhibitors and uses thereof” (Rigel Pharmaceuticals, Inc., priority 2009, dated 2015)
pIC50: −log10 of the molar value. Counter-ions that a name gives are not always drawn.

Each compound was assayed on Human primary T cells (assay: IL-2 ELISA, human primary T cell, anti-CD3+CD28+ (whole cell assay)). Conditions: Homo sapiens, T-cell, 24 h, human primary T cells stimulated with anti-CD3 + anti-CD28, 24 hours.
Type: cell-based
In short: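 PBMC-derived T cells, pre-expanded on αCD3/αCD28 with IL-2 and then washed free of IL-2, were preincubated with compound for 1 hr at 37° C (100,000 cells/well). They were then stimulated on 1 μg/ml αCD3 plus 5 μg/ml αCD28 for 24 h, and supernatant IL-2 was measured by ELISA. The counter-assay used 0.5 ng/ml PMA plus 0.1 μM ionomycin instead.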

pIC50 | Structure (SMILES)
> 6.60 | CC(C)N1CCC(Oc2ccc(Nc3ncc(F)c(NC4CC(C)(C)NC(C)(C)C4)n3)cc2Cl)CC1 [III-98, N2-(3-chloro-4-(1-isopropylpiperidin-4-yloxy)phenyl)-5-fluoro-N4-(2,2,6,6-tetramethylpiperidin-4-yl)pyrimidine-2,4-diamine]
> 6.60 | CN1C(C)(C)CC(Nc2nc(Nc3ccc(O[C@H]4CCOC4)c(OC(F)F)c3)ncc2F)CC1(C)C [III-99, (S)—N2-(3-(difluoromethoxy)-4-(tetrahydrofuran-3-yloxy)phenyl)-5-fluoro-N4-(1,2,2,6,6-pentamethylpiperidin-4-yl)pyrimidine-2,4-diamine]
6.30 to 6.60 | CC1(C)CC(Nc2nc(Nc3ccc(O[C@H]4CCOC4)c(OC(F)F)c3)ncc2F)CC(C)(C)N1 [III-100, (S)—N2-(3-(difluoromethoxy)-4-(tetrahydrofuran-3-yloxy)phenyl)-5-fluoro-N4-(2,2,6,6-tetramethylpiperidin-4-yl)pyrimidine-2,4-diamine]
> 6.60 | CC(C)N1CCC(Oc2ccc(Nc3ncc(F)c(NC4CC(C)(C)N(C)C(C)(C)C4)n3)cc2C(F)(F)F)CC1 [III-101, 5-fluoro-N2-(4-(1-isopropylpiperidin-4-yloxy)-3-(trifluoromethyl)phenyl)-N4-(1,2,2,6,6-pentamethylpiperidin-4-yl)pyrimidine-2,4-diamine]
6.30 to 6.60 | CC(C)N1CCC(Oc2ccc(Nc3ncc(F)c(NC4CC(C)(C)NC(C)(C)C4)n3)cc2C(F)(F)F)CC1 [III-102, 5-fluoro-N2-(4-(1-isopropylpiperidin-4-yloxy)-3-(trifluoromethyl)phenyl)-N4-(2,2,6,6-tetramethylpiperidin-4-yl)pyrimidine-2,4-diamine]
6.30 to 6.60 | CC(C)N1CCC(Oc2ccc(Nc3ncc(F)c(NC4CC(C)(C)N(C)C(C)(C)C4)n3)cc2OC(F)F)C(F)C1 (centres unmarked) [III-103, N2-(3-(difluoromethoxy)-4-(3-fluoro-1-isopropylpiperidin-4-yloxy)phenyl)-5-fluoro-N4-(1,2,2,6,6-pentamethylpiperidin-4-yl)pyrimidine-2,4-diamine trifluoroacetate salt]
6.00 to 6.30 | CC(C)N1CCC(Oc2ccc(Nc3ncc(F)c(NC4CC(C)(C)NC(C)(C)C4)n3)cc2OC(F)F)C(F)C1 (centres unmarked) [III-104, N2-(3-(difluoromethoxy)-4-(3-fluoro-1-isopropylpiperidin-4-yloxy)phenyl)-5-fluoro-N4-(2,2,6,6-tetramethylpiperidin-4-yl)pyrimidine-2,4-diamine trifluoroacetate salt]
6.00 to 6.30 | CC(C)N1CCC(Oc2ccc(Nc3ncc(F)c(NC4CC(C)(C)N(C)C(C)(C)C4)n3)cc2OC(F)F)C(F)(F)C1 (centres unmarked) [III-107, N2-(4-(3,3-difluoro-1-isopropylpiperidin-4-yloxy)-3-(difluoromethoxy)phenyl)-5-fluoro-N4-(1,2,2,6,6-pentamethylpiperidin-4-yl)pyrimidine-2,4-diamine]
6.00 to 6.30 | CC(C)N1CCC(Oc2ccc(Nc3ncc(F)c(NC4CC(C)(C)NC(C)(C)C4)n3)cc2OC(F)F)C(F)(F)C1 (centres unmarked) [III-108, N2-(4-(3,3-difluoro-1-isopropylpiperidin-4-yloxy)-3-(difluoromethoxy)phenyl)-5-fluoro-N4-(2,2,6,6-tetramethylpiperidin-4-yl)pyrimidine-2,4-diamine]

Same assay, conditions: human primary T cells stimulated with anti-CD3 + anti-CD28, 24 hours

pIC50 | Structure (SMILES)
> 6.60 | CC(C)N1CCC(Oc2ccc(Nc3ncc(F)c(NC4CC(C)(C)N(C)C(C)(C)C4)n3)cc2OC(F)F)C(F)C1 (centres unmarked) [III-105, N2-(3-(difluoromethoxy)-4-(3-fluoro-1-isopropylpiperidin-4-yloxy)phenyl)-5-fluoro-N4-(1,2,2,6,6-pentamethylpiperidin-4-yl)pyrimidine-2,4-diamine]
> 6.60 | CC(C)N1CCC(Oc2ccc(Nc3ncc(F)c(NC4CC(C)(C)NC(C)(C)C4)n3)cc2OC(F)F)C(F)C1 (centres unmarked) [III-106, N2-(3-(difluoromethoxy)-4-(3-fluoro-1-isopropylpiperidin-4-yloxy)phenyl)-5-fluoro-N4-(2,2,6,6-tetramethylpiperidin-4-yl)pyrimidine-2,4-diamine]
